The record followed here is patent US11136301B2, “Broad spectrum antiviral compounds and uses thereof” (The Regents Of The University Of California, priority 2015, dated 2021).

Entries after “also recorded” stand apart in the source; their conditions may differ. Counter-ions that a name gives are not always drawn.

In data set [1] the test system is polyubiquitination of A3G and Vif. The data set can be described thus: Ubiquitination assay in 293FT cells. The conditions noted are these: 293FT cells expressing HA-A3G and GFP-Vif, 10 μM, ALLN. In kind it is cell-based. Here is the method: Cells were incubated with or without 10 μM of IMA82, IMD55, or IMD64 for 16 h, and then with or without 10 μM of the calpain inhibitor ALLN for 4 h. The cells were washed once with PBS and lysed. Samples of 200 μg protein were immunoprecipitated by the addition of rat anti-HA (Roche) or mouse anti-GFP (Wako) antibodies (7 μg) and 50 μl protein G DYNABEADS® (Invitrogen) and rotated at RT for 2 h. The beads were washed three times with PBS containing 0.05% Tween 20 and boiled in 5×SDS sample buffer. The denatured proteins were resolved and electroblotted onto PVDF membranes. The membranes were probed with rabbit anti-ubiquitin, rabbit anti-HA, or rabbit anti-GFP antibodies, as described above.

Data set [2] relates to wild-type HIV-1 (HIV-1LAI) in H9 cells (non-permissive). Put plainly: microbe, parasite or virus in culture. In kind it is cell-based. The settings on record: H9 cells, HIV-1LAI, up to 50 μM, 15 days.
The test system of data set [3] is HSP90. The data set can be described thus: ViTAP (Vif inhibitor Target Affinity Purification): streptavidin affinity purification of compound-bound proteins. The settings on record: transfected 293FT cells, streptavidin affinity purification. In kind it is binding.
Data set [4] concerns wild-type HIV-1 (HIV-1LAI) in MT-4 cells (permissive). Put plainly: Antiviral activity assay: wild-type HIV-1 in permissive MT4 cells, reverse transcriptase activity in culture supernatants. In kind it is cell-based. The settings on record: MT4 cells, HIV-1LAI, up to 50 μM, 15 days.

Take `COc1cc(C(=O)NCCOCCOCCOCCNC(=O)CCCCC2SCC3NC(=O)NC32)ccc1NC(=O)c1ccc(N=[N+]=[N-])cc1Sc1ccc([N+](=O)[O-])cc1` (stereo not drawn) [IMD55, 4-azido-N-(2-methoxy-4-((13-oxo-17-(2-oxohexahydro-1H-thieno[3,4-d]imidazol-4-yl)-3,6,9-trioxa-12-azaheptadecyl)carbamoyl)phenyl)-2-((4-nitrophenyl)thio)benzamide]: in data set [1], the A3G ubiquitination result is “not observed” and the Vif ubiquitination entry is “ubiquitinated”. Also, in data set [2], the “viral replication (reverse transcriptase activity in supernatants)” value (“viral replication” for short) is listed as “dose-dependently inhibited viral replication”. Moreover, in data set [3], the “co-purification of HSP90 (90 kDa protein) with the compound” value (“co-purification of HSP90” below) is “co-purified; also recorded: specifically co-purify”.
For the compound `[N-]=[N+]=Nc1ccc(C(=O)NCCOCCOCCOCCNC(=O)CCCCC2SCC3NC(=O)NC32)cc1` (stereo not drawn) [IMD64, 4-Azido-N-(13-oxo-17-(2-oxohexahydro-1H-thieno[3,4-d]imidazol-4-yl)-3,6,9-trioxa-12-azaheptadecyl)benzamide], the A3G ubiquitination result in data set [1] was “extensively ubiquitinated”. Moreover, the “viral replication” value in data set [4] and in data set [2] was “no effect on viral replication” in each case. The “co-purification of HSP90” value in data set [3] is “did not associate”.
For the compound `COc1ccccc1-n1cc(-c2ccccc2S(=O)(=O)c2ccc(C(=O)O)cc2)nn1` (as salt: salt) [Compound 2gy, 2-Hydroxy-N,N,N-trimethylethanaminium 4-((2-(1-(2-methoxyphenyl)-1H-1,2,3-triazol-4-yl)phenyl)sulfonyl)benzoate], the melting point – broadly, the temperature, or range, at which the solid turns liquid – turned out to be 93 °C.
Turning to `COc1ccccc1C(=O)NCCOCCOCCOCCNC(=O)CCCCC1SCC2NC(=O)NC21` (stereo not drawn) [IMD41, 2-methoxy-N-(13-oxo-17-(2-oxohexahydro-1H-thieno[3,4-d]imidazol-4-yl)-3,6,9-trioxa-12-azaheptadecyl)benzamide], the “viral replication” value in data set [4] and in data set [2] was “no effect on viral replication” each time. The “co-purification of HSP90” value in data set [3] is reported as “did not co-purify”.
